Earlier results in patent publication US12697312B2, “Methods and devices for treatment of eyelid ptosis” (priority 2022, dated 2026).

Legend:
Müllers muscle = conditions: by activating post synaptic neuromuscular junction and muscle contraction
dry eye = conditions: eye drops containing retinyl palmitate 0.05 percent; Kim et al. (2009)

## CNC[C@H](O)c1cccc(O)c1 [Phenylephrine]
Müllers muscle
  effect on the eyelid (ptosis): shown to lift the eyelid

## CCCCCCCCCCCCCCCC(=O)OC/C=C(C)/C=C/C=C(C)/C=C/C1=C(C)CCCC1(C)C [retinyl palmitate]
Dry eye
  treatment of dry eye (keratoconjunctivitis sicca): effective treatment for dry eye
